Data set [1] relates to MCF-10A. The experiment in a line: Cytotoxicity against human MCF-10A cells at <= 25 uM after 72 hrs by MTT assay. The data set is classed as cell-based. For orientation: Formazan colour is commonly taken as a measure of viable cells.
The subject of data set [2] is MCF7. Put plainly: Cytotoxicity against human MCF7 cells assessed as inhibition of cell proliferation after 72 hrs by MTT assay. The note with it: MCF7, 72 h. The format is functional, cell-based.
The test system of data set [3] is HepG2. Put plainly: Cytotoxicity against human HepG2 cells assessed as inhibition of cell proliferation after 72 hrs by MTT assay. The format is functional, cell-based. Conditions: HepG2, 72 h.
Data set [4] concerns MCF-10A. Put plainly: Cytotoxicity against human MCF-10A cells at 100 uM after 72 hrs by MTT assay. The format is cell-based.
Data set [5] relates to A549. Put plainly: Cytotoxicity against human A549 cells assessed as inhibition of cell proliferation after 72 hrs by MTT assay. The format is functional, cell-based. Conditions: A549, 72 h.
Data set [6] deals with T1, DNA topoisomerase 2-alpha (Homo sapiens, UniProt P11388). Put plainly: Inhibition of human topoisomerase-2 alpha in human A498 cells assessed as decrease in relaxation of supercoiled DNA at 10 uM. The data set is classed as cell-based.
T1 sequence (P11388 whole entry): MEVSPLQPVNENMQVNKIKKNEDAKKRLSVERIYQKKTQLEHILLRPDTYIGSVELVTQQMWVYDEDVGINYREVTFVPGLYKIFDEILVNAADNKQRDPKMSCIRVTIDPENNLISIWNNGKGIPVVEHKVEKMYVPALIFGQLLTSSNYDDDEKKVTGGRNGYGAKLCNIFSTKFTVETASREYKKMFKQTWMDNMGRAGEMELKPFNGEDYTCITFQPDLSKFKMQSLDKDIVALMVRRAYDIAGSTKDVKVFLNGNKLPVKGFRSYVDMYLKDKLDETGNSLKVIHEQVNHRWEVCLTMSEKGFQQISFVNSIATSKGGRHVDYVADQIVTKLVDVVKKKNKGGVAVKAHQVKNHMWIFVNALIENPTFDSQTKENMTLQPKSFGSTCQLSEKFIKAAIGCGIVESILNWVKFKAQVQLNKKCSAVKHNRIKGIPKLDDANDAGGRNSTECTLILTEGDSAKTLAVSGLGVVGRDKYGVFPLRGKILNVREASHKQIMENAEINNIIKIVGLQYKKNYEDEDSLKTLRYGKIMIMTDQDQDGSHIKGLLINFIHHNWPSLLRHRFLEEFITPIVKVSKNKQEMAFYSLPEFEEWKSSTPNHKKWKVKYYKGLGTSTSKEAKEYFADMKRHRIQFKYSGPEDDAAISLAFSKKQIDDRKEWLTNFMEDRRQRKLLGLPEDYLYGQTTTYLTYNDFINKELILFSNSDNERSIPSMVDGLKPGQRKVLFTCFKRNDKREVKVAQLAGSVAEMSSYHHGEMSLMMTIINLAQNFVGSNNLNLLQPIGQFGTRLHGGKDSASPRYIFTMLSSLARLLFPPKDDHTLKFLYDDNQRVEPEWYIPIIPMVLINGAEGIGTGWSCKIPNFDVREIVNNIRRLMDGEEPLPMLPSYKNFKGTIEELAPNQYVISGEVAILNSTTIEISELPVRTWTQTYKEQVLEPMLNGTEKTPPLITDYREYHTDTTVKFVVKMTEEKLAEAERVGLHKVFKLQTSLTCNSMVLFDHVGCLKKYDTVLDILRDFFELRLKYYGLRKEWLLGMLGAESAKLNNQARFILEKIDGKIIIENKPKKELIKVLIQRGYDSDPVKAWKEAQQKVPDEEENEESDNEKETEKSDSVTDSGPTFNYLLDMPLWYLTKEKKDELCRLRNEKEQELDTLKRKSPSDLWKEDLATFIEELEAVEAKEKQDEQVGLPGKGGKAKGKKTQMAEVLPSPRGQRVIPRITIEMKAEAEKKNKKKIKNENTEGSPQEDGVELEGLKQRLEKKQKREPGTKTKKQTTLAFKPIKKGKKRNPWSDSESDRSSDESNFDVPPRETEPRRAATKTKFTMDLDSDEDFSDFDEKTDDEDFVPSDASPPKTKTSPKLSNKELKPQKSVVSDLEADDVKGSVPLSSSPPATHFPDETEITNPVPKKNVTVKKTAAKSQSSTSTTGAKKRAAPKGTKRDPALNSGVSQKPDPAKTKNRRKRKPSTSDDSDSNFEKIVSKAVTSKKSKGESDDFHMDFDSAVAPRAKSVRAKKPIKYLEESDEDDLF
For data set [7], the system named is MCF-10A. Put plainly: Cytotoxicity against human MCF-10A cells assessed as reduction in cell viability after 72 hrs by MTT assay. The format is cell-based.
In data set [8] the target is T1, DNA topoisomerase 2-alpha. The experiment in a line: Inhibition of human topoisomerase-2alpha assessed as reduction in pBR322 DNA relaxation by gel electrophoresis method.
The subject of data set [9] is MCF-10A. Put plainly: Cytotoxicity against human MCF-10A cells at 50 uM after 72 hrs by MTT assay. The format is cell-based.

Activity calls are given as the source filed them. The rule behind the calls is not given here.

As usually defined, the IC50 is the concentration that inhibits the measured activity by half. In the case of `Cc1cc2occ(C3C(C#N)=C(N)Oc4c3c(=O)oc3ccccc43)c(=O)c2cc1Cl` (configuration not stated), the Activity entry in data set [1] was “Non-Toxic”; in data set [4], “Toxic”. The values for the IC50 in data set [2], in data set [3] and in data set [5] were 6.25 µM, 12.5 µM and 6.25 µM, respectively.

Turning to `N#CC1=C(N)Oc2c(c(=O)oc3ccccc23)C1c1c[nH]c2ccccc12` (configuration not stated), the results for the Activity result in data set [1] and in [9] were “Non-Toxic” and “Toxic”, respectively. In addition, the IC50 was found to be 1.56 µM in data set [2]; 12.5 µM in [3]; 12.4 µM in [6]; 94 µM in data set [7]; 1.56 µM in [5]. Further, the inhibition result in [8] is “Active”.

For the compound `N#CC1=C(N)Oc2c(c(=O)oc3ccccc23)C1c1c2ccccc2cc2ccccc12` (configuration not stated), the figures for the Activity result in [1] and in [4] were “Non-Toxic” and “Toxic”, respectively. Moreover, the values for the IC50 in data set [2], in data set [3] and in data set [5] were 12.5 µM, 25 µM and 25 µM, respectively.

On to `Cc1cc2occ(-c3nc(-c4ccccc4)c(-c4ccccc4)n3-c3ccc(Cl)cc3)c(=O)c2cc1Cl`, for which the values for the Activity result in data set [1] and in data set [9] were “Non-Toxic” and “Toxic”, respectively. The IC50 is 12.5 µM in data set [2], 1.56 µM in [3], 92 µM in [7] and 12.5 µM in data set [5].

`N#CC1=C(N)Oc2c(c(=O)oc3ccccc23)C1c1cc2ccccc2s1` (configuration not stated): the Activity result is recorded as “Non-Toxic” in [1] and “Toxic” in [9]. Also, the IC50 is 1.56 µM in [2]; 6.25 µM in data set [3]; 10.3 µM in [6]; 98 µM in data set [7]; 1.56 µM in data set [5]. Moreover, the inhibition entry in data set [8] is “Active”.

For the compound `N#CC1=C(N)Oc2c(c(=O)oc3ccccc23)C1c1cnc2ccccc2c1` (configuration not stated), the results for the Activity result in data set [1] and in data set [9] were “Non-Toxic” and “Toxic”, respectively. Besides, the IC50 in data set [2] came to 1.56 µM; in data set [3], 6.25 µM; in data set [6], 16.7 µM; in [7], 94 µM; in data set [5] it was 6.25 µM.

For `Cc1cc2occ(-c3nc(-c4ccccc4)c(-c4ccccc4)n3-c3cccc(Cl)c3)c(=O)c2cc1Cl`, the Activity result in data set [1] is recorded as “Non-Toxic”; in data set [4] it was “Toxic”. Moreover, the IC50 in data set [2] came to 6.25 µM; in data set [3], 25 µM; in data set [5] it was 25 µM.

For `Cc1cc2occ(-c3nc(-c4ccccc4)c(-c4ccccc4)n3-c3cccc([N+](=O)[O-])c3)c(=O)c2cc1Cl`, the Activity entry in [1] is “Non-Toxic”; in [9], “Toxic”. Also, the results for the IC50 in data set [2], in [3] and in data set [5] were 1.56 µM, 25 µM and 6.25 µM, respectively.

With `Cc1ccc(-n2c(-c3coc4cc(C)c(Cl)cc4c3=O)nc(-c3ccccc3)c2-c2ccccc2)cc1`, the Activity entry is given as “Non-Toxic” in [1] and “Toxic” in data set [4]. In addition, the IC50 in [2] is 12.5 µM; in [3] it was 6.25 µM; in [5], 12.5 µM.

As to `Cc1cc2occ(-c3nc(-c4ccccc4)c(-c4ccccc4)n3-c3ccc(Cl)c(Cl)c3)c(=O)c2cc1Cl`, the Activity entry in data set [1] is given as “Non-Toxic”; in data set [9] it was “Toxic”. For the same compound, the IC50 in data set [2] was found to be 1.56 µM; in data set [3] it was 12.5 µM; in data set [6] it was 39.9 µM; in data set [7] it was 98 µM; in data set [5], 6.25 µM.

Regarding `N#CC1=C(N)Oc2c(c(=O)oc3ccccc23)C1c1cc(=O)c2ccccc2o1` (configuration not stated), the Activity result in data set [1] is listed as “Non-Toxic”; in data set [9] it was “Toxic”. Besides, the IC50 came to 12.5 µM in data set [2]; 6.25 µM in data set [3]; 26.4 µM in data set [6]; 90 µM in [7]; 1.56 µM in data set [5].

On to `Cc1cccc(-n2c(-c3coc4cc(C)c(Cl)cc4c3=O)nc(-c3ccccc3)c2-c2ccccc2)c1`, for which the Activity entry in data set [1] is “Non-Toxic”; in data set [4], “Toxic”. The IC50 came to 12.5 µM in data set [2], 6.25 µM in data set [3] and 12.5 µM in data set [5].

With `Cc1cc2occ(-c3nc(-c4ccccc4)c(-c4ccccc4)n3-c3ccccc3Cl)c(=O)c2cc1Cl`, the Activity result in data set [1] is recorded as “Non-Toxic”; in data set [4], “Toxic”. Moreover, the IC50 in [2] stood at 3.12 µM; in [3] it was 6.25 µM; in data set [5], 12.5 µM.

As for `Cc1ccc(-n2c(-c3coc4cc(C)c(Cl)cc4c3=O)nc(-c3ccccc3)c2-c2ccccc2)c(C)c1`, the Activity entry was “Non-Toxic” in data set [1] and “Toxic” in [4]. In addition, the IC50 in [2] was 6.25 µM; in data set [3], 3.12 µM; in [5], 6.25 µM.

For `COc1ccc(C2C(C#N)=C(N)Oc3c2c(=O)oc2ccccc32)c(OC)c1` (configuration not stated), the Activity entry in [1] is on record as “Non-Toxic”; in data set [4], “Toxic”. For the same compound, the IC50 came to 25 µM in data set [2], 3.12 µM in [3] and 6.25 µM in data set [5].

With `COc1ccccc1-n1c(-c2coc3cc(C)c(Cl)cc3c2=O)nc(-c2ccccc2)c1-c1ccccc1`, the Activity result in [1] is recorded as “Non-Toxic”; in data set [4], “Toxic”. In addition, the IC50 in data set [2] amounted to 25 µM; in data set [3], 12.5 µM; in [5] it was 12.5 µM.

As for `N#CC1=C(N)Oc2c(c(=O)oc3ccccc23)C1C1CC1` (configuration not stated), the results for the Activity result in data set [1] and in data set [4] were “Non-Toxic” and “Toxic”, respectively. Further, the IC50 in data set [2] was 25 µM; in data set [3], 12.5 µM; in [5], 25 µM.

On to `Cc1cc2occ(-c3nc(-c4ccccc4)c(-c4ccccc4)n3-c3ccc([N+](=O)[O-])cc3)c(=O)c2cc1Cl`, for which the Activity result in data set [1] is “Non-Toxic”; in data set [4] it was “Toxic”. The IC50 in data set [2] was 6.25 µM; in [3], 25 µM; in data set [6], 48.4 µM; in [7] it was over 100 µM; in data set [5], 3.12 µM.

As for `COc1cccc(-n2c(-c3coc4cc(C)c(Cl)cc4c3=O)nc(-c3ccccc3)c2-c2ccccc2)c1`, the Activity entry is “Non-Toxic” in [1] and “Toxic” in data set [4]. Also, the results for the IC50 in [2], in data set [3] and in [5] were 25 µM, 6.25 µM and 6.25 µM, respectively.

With `N#CC1=C(N)Oc2c(c(=O)oc3ccccc23)C1c1cc2ccccc2c2ccccc12` (configuration not stated), the Activity entry in [1] is reported as “Non-Toxic”; in [4], “Toxic”. The IC50 in [2], in data set [3] and in [5] was 25 µM in each case.

As to `Cc1cc2occ(-c3nc(-c4ccccc4)c(-c4ccccc4)n3-c3ccc(Br)cc3)c(=O)c2cc1Cl`, the Activity entry in data set [1] was “Non-Toxic”; in data set [9] it was “Toxic”. Further, the IC50 in [2] is 1.56 µM; in [3] it was 6.25 µM; in [6], 17.1 µM; in [7] it was over 100 µM; in data set [5], 25 µM.

(Values after ChEMBL document CHEMBL4819046, “One pot synthesis, in silico study and evaluation of some novel flavonoids as potent topoisomerase II inhibitors” (Bioorg Med Chem Lett, 2021).)
